Measurements as given in ChEMBL document CHEMBL1201862, “PubChem BioAssay data set” (2004).
Activity calls are given as the source filed them.

Legend:
[1] = target: T1, Neuropeptide Y receptor type 2 (Homo sapiens, UniProt P49146); type: functional, cell-based;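 also: HEK293 cells expressing the receptor and a CNG channel; stimulus was NPY near EC95 followed by isoproterenol to raise cAMP; antagonist potency measured as restoring cAMP signal that NPY suppresses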
T1 sequence (P49146 whole entry): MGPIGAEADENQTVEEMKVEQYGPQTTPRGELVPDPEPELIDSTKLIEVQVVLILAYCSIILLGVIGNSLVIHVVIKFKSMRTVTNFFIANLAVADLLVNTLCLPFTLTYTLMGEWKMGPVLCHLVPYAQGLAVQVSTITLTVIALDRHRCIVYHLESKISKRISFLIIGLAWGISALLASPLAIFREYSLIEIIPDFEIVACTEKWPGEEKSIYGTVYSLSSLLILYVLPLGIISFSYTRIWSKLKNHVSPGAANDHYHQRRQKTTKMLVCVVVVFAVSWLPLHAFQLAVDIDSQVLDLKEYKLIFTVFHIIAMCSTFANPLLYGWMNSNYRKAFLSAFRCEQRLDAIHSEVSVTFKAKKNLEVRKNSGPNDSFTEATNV

[2] = target: T2, Neuropeptide Y receptor type 1 (Homo sapiens, UniProt P25929); type: functional;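 also: HEK293 cells with a CNG channel challenged with NPY then isoproterenol; potency as antagonist that reverses NPY suppression of cAMP signal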
T2 sequence (P25929 whole entry): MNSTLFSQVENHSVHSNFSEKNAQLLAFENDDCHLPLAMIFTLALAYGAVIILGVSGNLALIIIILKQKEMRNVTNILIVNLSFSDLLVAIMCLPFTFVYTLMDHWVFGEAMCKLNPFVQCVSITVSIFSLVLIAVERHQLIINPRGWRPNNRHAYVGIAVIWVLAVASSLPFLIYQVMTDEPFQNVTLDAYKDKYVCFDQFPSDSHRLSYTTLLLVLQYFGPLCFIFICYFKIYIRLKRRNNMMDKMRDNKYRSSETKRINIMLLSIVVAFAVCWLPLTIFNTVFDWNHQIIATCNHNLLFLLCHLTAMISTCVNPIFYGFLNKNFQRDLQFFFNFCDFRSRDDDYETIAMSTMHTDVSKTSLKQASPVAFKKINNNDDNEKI

Cytochrome P450 3A4 = Cytochrome P450 3A4 (Homo sapiens, UniProt P08684); settings: Potency;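 also: confirmatory qHTS run detecting inhibitors and substrates of CYP3A4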
Chain of Cytochrome P450 3A4 (P08684 whole entry): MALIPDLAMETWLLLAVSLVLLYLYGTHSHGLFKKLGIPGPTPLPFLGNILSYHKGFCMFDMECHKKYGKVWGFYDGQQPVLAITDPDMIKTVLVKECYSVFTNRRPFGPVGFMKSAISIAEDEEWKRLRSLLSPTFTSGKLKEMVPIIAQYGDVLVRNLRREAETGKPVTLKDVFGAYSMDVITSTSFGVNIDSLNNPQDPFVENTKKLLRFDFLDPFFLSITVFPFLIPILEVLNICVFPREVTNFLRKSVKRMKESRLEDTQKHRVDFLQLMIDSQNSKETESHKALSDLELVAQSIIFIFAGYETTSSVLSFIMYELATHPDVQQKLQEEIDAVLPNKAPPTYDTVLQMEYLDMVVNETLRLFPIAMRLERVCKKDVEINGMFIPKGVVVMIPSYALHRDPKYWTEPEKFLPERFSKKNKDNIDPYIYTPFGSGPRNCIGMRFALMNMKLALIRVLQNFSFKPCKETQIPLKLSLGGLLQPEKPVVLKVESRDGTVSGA

[3] = target: Neurotensin receptor type 1 (Homo sapiens, UniProt P30989); type: functional;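 also: Image-based confirmatory dose-response assay measuring agonist activity at NTR1; NTR1-expressing U2OS osteosarcoma cells imaged for beta-arrestin GFP spot formation; agonist potency where compounds increase beta-arrestin recruitment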
Chain of Neurotensin receptor type 1 (P30989 whole entry): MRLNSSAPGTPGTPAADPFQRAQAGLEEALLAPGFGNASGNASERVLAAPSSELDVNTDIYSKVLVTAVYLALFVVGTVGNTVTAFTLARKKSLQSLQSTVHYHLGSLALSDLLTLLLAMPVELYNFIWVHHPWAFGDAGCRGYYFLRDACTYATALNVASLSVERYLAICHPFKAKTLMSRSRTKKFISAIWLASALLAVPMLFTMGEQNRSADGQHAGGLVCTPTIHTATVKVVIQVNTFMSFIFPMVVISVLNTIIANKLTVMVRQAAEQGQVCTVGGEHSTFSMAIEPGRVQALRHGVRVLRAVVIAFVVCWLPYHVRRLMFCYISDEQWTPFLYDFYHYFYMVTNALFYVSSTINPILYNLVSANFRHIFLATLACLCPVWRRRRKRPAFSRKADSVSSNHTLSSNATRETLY

Streptokinase A = target: T3, Streptokinase A (Streptococcus pyogenes serotype M1, UniProt P10520); experiment: S. pyogenes streptokinase expression inhibitors, potency, dose response, plasminogen activation absorbance, OD405 (AID 1914); type: functional, Streptococcus pyogenes M1 GAS;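 also: secreted streptokinase activity via plasminogen activation per viability signal from cell pellet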
T3 sequence (P10520 whole entry): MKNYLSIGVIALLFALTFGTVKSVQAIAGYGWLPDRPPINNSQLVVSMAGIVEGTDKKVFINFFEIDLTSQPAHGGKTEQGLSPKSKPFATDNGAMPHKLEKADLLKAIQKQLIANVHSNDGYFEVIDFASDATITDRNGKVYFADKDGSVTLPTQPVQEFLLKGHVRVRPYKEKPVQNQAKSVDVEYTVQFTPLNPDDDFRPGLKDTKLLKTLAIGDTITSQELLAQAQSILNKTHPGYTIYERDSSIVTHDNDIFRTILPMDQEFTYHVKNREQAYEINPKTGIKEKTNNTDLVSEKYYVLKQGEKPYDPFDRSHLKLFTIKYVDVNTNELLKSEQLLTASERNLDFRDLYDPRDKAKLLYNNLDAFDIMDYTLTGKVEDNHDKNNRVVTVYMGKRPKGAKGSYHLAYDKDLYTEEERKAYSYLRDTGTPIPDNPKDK

[4] = inhibitors of SNCA 5'UTR-driven reporter translation, confirmation, H4 neuroglioma cells, luminescence (AID 1988); type: functional, cell-based
Streptococcus = experiment: Group A Streptococcus viability loss, dose response, counter-screen for streptokinase expression inhibitor project, luminescence, BacTiterGlo (AID 1915); type: functional, organism-based;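 also: potency for reduction of bacterial viability or growth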
[5] = tested on: Streptococcus sp. 'group A'; experiment: growth inhibition of control SK(-) GAS strain, dose response, counter-screen for streptokinase expression inhibitor project, luminescence, kanamycin, BacTiterGlo, confirmation (AID 1900); type: functional, organism-based
[6] = inhibitors of SNCA 5'UTR-driven translation, confirmation, luminescence, H4 neuroglioblastoma cells, dose confirmation (AID 2454); type: functional, cell-based;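 also: H4 neuroglioblastoma cells carrying an alpha-synuclein 5'UTR luciferase reporter; potency for inhibition of the luciferase signal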
[7] = Luminescence Cell-Based Dose Response HTS to Identify Inhibitors of 5'UTR Stem-Loop Driven Prion Protein mRNA Translation in H4 Neuroglioblastoma Cells. [Related pubchem assays: 1827 (Project Summary), 1813 (Primary HTS)]; type: functional
cells = type: functional, cell-based
[8] = cytotoxicity in HPDE-C7 cells, cell-based, fluorescence, HTS (AID 430); type: functional; settings: Homo sapiens
[9] = inhibitors of firefly luciferase expression or activity, dose response, H4 neuroglioma cells, luminescence (AID 1990); type: functional, cell-based
[10] = luciferase reporter signal reduction – luminescence, H4-C neuroglioblastoma cells, dose response (AID 2458); type: functional, cell-based;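 also: H4 neuroglioblastoma cells stably carrying a luciferase reporter gene fusion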
[11] = cytotoxicity in HEK-293T cells, dose response, cytotoxicity control for TCR NF-kB inhibitor project, luminescence, T-cell screen hits (AID 489026); type: functional, cell-based;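 also: cells exposed to compound about 14 hours before the viability readout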
[12] = cytotoxicity in KRAS-transformed pancreatic duct cells, primary screen, cell-based, fluorescence, HTS (AID 431); type: functional; settings: Homo sapiens;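 also: cell line used: HPDE-C7K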
Estrogen receptor = target: T4, Estrogen receptor (Homo sapiens, UniProt P03372); experiment: potentiators of ERα–SRC-1 coactivator binding, dose response, biochemical, TR-FRET, ERα LBD (AID 737)
T4 sequence (P03372 whole entry): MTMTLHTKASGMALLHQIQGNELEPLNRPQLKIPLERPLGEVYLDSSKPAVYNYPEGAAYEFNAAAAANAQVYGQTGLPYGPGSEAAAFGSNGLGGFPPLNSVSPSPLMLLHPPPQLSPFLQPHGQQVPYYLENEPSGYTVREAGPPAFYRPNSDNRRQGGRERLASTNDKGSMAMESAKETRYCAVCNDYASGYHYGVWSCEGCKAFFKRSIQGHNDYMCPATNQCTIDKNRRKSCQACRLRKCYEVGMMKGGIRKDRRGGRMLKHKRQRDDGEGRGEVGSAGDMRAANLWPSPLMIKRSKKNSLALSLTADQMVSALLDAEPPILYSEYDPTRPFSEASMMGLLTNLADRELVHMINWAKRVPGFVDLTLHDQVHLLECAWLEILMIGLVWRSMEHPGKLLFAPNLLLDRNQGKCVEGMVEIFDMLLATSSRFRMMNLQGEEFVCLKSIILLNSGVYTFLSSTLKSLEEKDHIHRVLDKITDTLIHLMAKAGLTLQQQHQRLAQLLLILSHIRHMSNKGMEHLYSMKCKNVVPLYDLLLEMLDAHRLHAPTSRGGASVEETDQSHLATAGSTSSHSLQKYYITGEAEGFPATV

[13] = target: G-protein coupled receptor 35 (Homo sapiens, UniProt Q9HC97); experiment: GPR35 antagonists blocking zaprinast-driven arrestin recruitment, primary screen, imaging, U2OS, beta-arrestin-GFP, zaprinast agonist (AID 2058); type: functional;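 also: antagonist potency meaning inhibition of agonist-induced arrestin redistribution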
Chain of G-protein coupled receptor 35 (Q9HC97 whole entry): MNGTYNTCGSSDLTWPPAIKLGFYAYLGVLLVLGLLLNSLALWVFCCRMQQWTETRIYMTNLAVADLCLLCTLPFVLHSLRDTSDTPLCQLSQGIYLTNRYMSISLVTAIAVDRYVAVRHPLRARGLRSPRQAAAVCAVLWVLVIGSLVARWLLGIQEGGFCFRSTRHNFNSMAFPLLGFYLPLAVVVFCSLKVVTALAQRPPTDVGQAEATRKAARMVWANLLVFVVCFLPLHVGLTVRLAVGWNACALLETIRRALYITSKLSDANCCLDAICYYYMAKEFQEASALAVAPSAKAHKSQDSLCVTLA

[14] = target: Melanin-concentrating hormone receptor 1 (Homo sapiens, UniProt Q99705); experiment: Late-stage fluorescence-based counterscreen for antagonists of the G-protein coupled receptor 7 (GPR7): cell-based dose response assay to identify antagonists of the melanin-concentrating hormone receptor 1 (MCHR1). [Related pubchem assays (depositor defined):AID1861, AID1880, AID1952, AID2148, AID2251, AID2257, AID485339]; type: functional;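 also: stimulated with 30 nM MCH peptide agonist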
Chain of Melanin-concentrating hormone receptor 1 (Q99705 whole entry): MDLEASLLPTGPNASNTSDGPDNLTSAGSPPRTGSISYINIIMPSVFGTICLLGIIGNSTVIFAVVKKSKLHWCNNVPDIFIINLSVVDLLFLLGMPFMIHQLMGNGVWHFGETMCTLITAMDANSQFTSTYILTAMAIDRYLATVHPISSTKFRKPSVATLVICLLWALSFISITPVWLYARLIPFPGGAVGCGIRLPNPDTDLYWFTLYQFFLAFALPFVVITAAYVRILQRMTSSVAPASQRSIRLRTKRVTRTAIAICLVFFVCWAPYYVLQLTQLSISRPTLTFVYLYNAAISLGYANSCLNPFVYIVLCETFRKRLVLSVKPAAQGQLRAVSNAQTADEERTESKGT

SUMO-activating enzyme [15] = target: T5, SUMO-activating enzyme (Homo sapiens, UniProt Q9UBT2); experiment: SUMOylation inhibitor hit validation, confirmation, SUMOylation inhibitor project, biochemical, AlphaScreen (AID 2018); type: functional
T5 sequence (Q9UBE0 whole entry): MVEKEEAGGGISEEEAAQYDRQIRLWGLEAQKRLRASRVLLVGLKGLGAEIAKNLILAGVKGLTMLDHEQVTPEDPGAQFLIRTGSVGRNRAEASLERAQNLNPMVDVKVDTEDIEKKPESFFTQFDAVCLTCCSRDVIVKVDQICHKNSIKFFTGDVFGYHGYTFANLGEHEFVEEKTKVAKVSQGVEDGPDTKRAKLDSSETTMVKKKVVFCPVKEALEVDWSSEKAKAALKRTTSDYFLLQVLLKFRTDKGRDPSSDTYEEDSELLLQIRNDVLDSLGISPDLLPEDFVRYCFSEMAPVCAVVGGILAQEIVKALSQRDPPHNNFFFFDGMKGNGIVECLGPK
T5 sequence (Q9UBT2 whole entry): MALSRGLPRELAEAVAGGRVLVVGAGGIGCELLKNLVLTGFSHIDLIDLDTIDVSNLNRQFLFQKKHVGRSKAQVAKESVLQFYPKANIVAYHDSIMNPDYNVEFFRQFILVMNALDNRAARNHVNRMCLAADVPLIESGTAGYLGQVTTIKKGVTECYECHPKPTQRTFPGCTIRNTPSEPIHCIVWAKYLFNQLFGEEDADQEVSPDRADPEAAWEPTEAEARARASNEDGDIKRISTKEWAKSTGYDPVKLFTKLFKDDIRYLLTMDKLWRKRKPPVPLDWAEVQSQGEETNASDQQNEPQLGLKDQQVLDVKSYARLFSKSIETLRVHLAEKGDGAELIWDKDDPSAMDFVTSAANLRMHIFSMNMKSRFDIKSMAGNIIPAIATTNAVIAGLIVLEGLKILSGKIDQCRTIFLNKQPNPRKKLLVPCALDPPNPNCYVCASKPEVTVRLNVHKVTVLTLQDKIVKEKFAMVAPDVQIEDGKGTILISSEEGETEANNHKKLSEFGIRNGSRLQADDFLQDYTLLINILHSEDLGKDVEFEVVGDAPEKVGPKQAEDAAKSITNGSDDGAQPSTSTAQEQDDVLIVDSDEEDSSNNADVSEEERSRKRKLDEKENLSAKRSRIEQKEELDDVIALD

[16] = target: 26S proteasome non-ATPase regulatory subunit 14 (Homo sapiens, UniProt O00487); experiment: inhibition of proteasome subunit RPN11 – biochemical, fluorescence polarization, uHTS hits, confirmation (AID 602368); type: functional
Chain of 26S proteasome non-ATPase regulatory subunit 14 (O00487 whole entry): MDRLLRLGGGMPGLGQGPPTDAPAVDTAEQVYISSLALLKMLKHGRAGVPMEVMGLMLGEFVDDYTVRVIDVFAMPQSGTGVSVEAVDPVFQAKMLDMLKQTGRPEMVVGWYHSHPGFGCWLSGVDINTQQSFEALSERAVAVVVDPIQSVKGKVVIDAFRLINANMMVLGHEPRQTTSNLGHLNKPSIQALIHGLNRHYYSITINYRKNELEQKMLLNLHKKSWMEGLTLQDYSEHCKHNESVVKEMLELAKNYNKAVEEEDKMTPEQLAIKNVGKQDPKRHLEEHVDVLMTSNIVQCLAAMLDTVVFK

SUMO-activating enzyme [17] = target: T5, SUMO-activating enzyme; experiment: inhibitors of in vitro SUMOylation cascade, primary screen, biochemical, HTRF, uHTS (AID 2006); type: protein-complex assay
[18] = target: 72 kDa type IV collagenase (Homo sapiens, UniProt P08253); experiment: Dose Response validation of uHTS RPN11 inhibitor hits using a MMP-2 Fluorescence assay.; type: functional
Chain of 72 kDa type IV collagenase (P08253 whole entry): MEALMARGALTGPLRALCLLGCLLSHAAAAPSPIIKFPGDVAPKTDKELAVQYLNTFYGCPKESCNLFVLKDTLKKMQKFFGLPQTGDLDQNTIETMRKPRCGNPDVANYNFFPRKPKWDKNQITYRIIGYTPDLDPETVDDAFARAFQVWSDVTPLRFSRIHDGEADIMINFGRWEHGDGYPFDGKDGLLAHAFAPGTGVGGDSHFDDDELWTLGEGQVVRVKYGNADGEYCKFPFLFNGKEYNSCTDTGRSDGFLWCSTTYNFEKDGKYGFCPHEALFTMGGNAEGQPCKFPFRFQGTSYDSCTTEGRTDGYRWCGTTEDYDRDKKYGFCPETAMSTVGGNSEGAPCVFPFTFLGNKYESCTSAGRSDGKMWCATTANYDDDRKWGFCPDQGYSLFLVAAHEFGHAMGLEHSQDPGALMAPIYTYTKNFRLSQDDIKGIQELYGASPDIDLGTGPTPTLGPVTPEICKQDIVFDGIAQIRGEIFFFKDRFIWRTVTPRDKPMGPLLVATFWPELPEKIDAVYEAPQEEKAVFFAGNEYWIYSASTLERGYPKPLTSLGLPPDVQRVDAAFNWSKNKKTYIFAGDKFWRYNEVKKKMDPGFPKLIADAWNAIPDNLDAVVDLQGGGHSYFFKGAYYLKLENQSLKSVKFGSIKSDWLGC

[19] = target: T6, Small ubiquitin-related modifier 1 (Homo sapiens, UniProt P63165); experiment: inhibitors of SUMO1 partner interactions, dose response, biochemical, FRET (AID 624383); type: functional; settings: read-out: IC50_Mean
T6 sequence (P63165 whole entry): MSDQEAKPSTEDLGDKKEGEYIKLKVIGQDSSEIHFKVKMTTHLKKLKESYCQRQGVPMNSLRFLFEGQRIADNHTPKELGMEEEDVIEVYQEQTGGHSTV

Prothrombin = Prothrombin (Bos taurus, UniProt P00735); experiment: thrombin inhibition, dose response, biochemical, fluorescence polarization, uHTS hits (AID 602369); type: functional
[20] = target: T6, Small ubiquitin-related modifier 1; experiment: inhibitors of SUMO1 peptide binding, dose response, biochemical, fluorescence polarization, uHTS hits (AID 624382); type: functional; settings: read-out: IC50_Mean
[21] = Luminescence Cell-Based Dose Retest to Confirm Inhibitors of Cancer Stem Cells. [Related pubchem assays (depositor defined):AID2717, AID2721]; type: functional; settings: Homo sapiens

COC(=O)c1cc2occc2n1Cc1nc(-c2ccccc2Cl)oc1C
IC50 [1]: 8.2 µM (active) | IC50 [2]: 7.7 µM (active)

CCCn1c(-c2ccc(F)cc2)nc2c(NCC3CCN(C)CC3)nc(C)nc21
AC50 (Cytochrome P450 3A4): 15.8 µM (inconclusive)

Cc1cccc(NC(=O)c2nc[nH]c2C(=O)N[C@@H](Cc2ccccc2)C(=O)OC(C)(C)C)c1
EC50 [3]: 17.9 µM (active) | EC50 (Streptokinase A): > 150 µM (not active)

CCN(CC)c1ccc(-c2nn3c(-c4ccccc4OC)nnc3s2)cc1
EC50 [4]: < 100 nM (active) | EC50 (Streptococcus): 8.67 µM (active) | EC50 [5]: 6.86 µM (active) | EC50 [6]: 170 nM (active) | EC50 [7]: 8.94 µM (active) | EC50 (cells): 346 nM (active) | EC50 [8]: > 20 µM (not active) | EC50 [9]: < 100 nM (active) | EC50 [10]: 214 nM (active) | IC50 [11]: 49.9 µM (inactive) | EC50 [12]: > 20 µM (not active) | EC50 (Estrogen receptor): 18.2 µM (active) | EC50 (Streptokinase A): > 150 µM (not active)

COc1ccc(-c2[nH]nc3c2C(c2ccc(OC)c(OC)c2)N(c2ccccc2)C3=O)cc1 (stereo not given)
IC50 [1]: 4.36 µM (active) | IC50 [2]: 7.8 µM (active)

CCOC(=O)c1c(-c2ccccc2)csc1NC(=O)/C(C#N)=C/c1ccc(O)c(OC)c1
IC50 [13]: 2.75 µM (active)

CC(=O)OC1CC2C(C)(C)C=CC(=O)[C@@]2(C)C2CC[C@@]3(C)C(c4ccoc4)OC(=O)C4OC43[C@]12C (stereo not given in full)
AC50 (Cytochrome P450 3A4): 15.8 µM (inconclusive)

COc1ccc(Oc2c(Cl)cnn(-c3cccc4c3CCCC4)c2=O)cc1
IC50 [14]: 4.1 µM (active)

Sc1nnc(-c2cc(-c3ccccc3)[nH]n2)n1/N=C/c1cccc(Cl)c1
IC50 (SUMO-activating enzyme [15]): 3.34 µM (active) | IC50 [16]: 11.4 µM (active) | EC50 (Streptococcus): 84.4 µM (active) | IC50 (SUMO-activating enzyme [17]): 11.1 µM (active) | EC50 [5]: 16.7 µM (active) | IC50 [18]: > 100 µM (inactive) | IC50 [19]: 5.8 µM (active) | IC50 (Prothrombin): 33.8 µM (active) | EC50 (Streptokinase A): > 150 µM (not active) | IC50 [20]: > 66.6 µM (inactive)

CCCCNc1c(-c2cccc(Sc3ccc(OC)cc3)c2)nc2ccccn12
EC50 [3]: 27.5 µM (inactive) | AC50 [21]: 5.22 µM (active)
